Source: US20260053171A1, “METHANOGEN INHIBITORS” (AGRIZERONZ LIMITED PARTNERSHIP, priority 2022, published 2026)

Legend:
[1] = system: methane production in rumen fluid; test: Rumen in vitro (RIV) assay, methane production from rumen fluid incubations; type: cell-based, cattle; conditions: Bos taurus, read-out: RIV % methane reduction +/− SD
Procedure, shortened: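 Rumen fluid from two fistulated cattle diluted 12 ml in 48 ml buffer with ryegrass substrate, incubated in sealed bottles at 39° C for 24-48 h in duplicate. Inhibitors added in DMF (stocks 1000-fold above highest assay level); total gas, methane and H2 measured automatically; 30 μM BES positive control, no-inhibitor negative control.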

[2] = system: methane emissions from sheep; test: Example 2: in vivo study on sheep methane emissions (respiration chambers, dosing in feed twice daily); conditions: for CH4 Inhibition [%] Average Days 1-3: Average Days 1-3, dose mg/day: Compound 60 412, 69 311, 67 414, 64 344
Description: (§1) The trial for testing the effects of Compound 60, Compound 69, Compound 67 and Compound 64 on methane emissions from sheep over a 96-hour period in methane measurement chambers was approved by the Grasslands Animal Ethics Committee. Three sheep were used for each Compound 60 and Compound 69 treatment group and six sheep were used for each Compound 67 and Compound 64 treatment group. The animals received a general-purpose diet (GP) at 1.5× maintenance energy requirements throughout the trials consisting of 500 g hay, 100 g soybean meal, 290 g barley, 100 g molasses and 10 g mineral mix. During the time in the respiration chambers the animals had free access to water, with the feed offered twice a day at approximately 9:00 and 16:00 h in equal amounts. Feed refusals were weighed.
(§2) The animals were adapted to GP diet for 14 days prior to entering the methane measurement chambers. Rumen contents were sampled by stomach tubing before methane emissions were measured in the respiration chambers and the day after being released from the chambers to allow for the future examination of any effects on volatile fatty acids (VFAs). Rumen samples from stomach tubing were immediately subsampled for short chain fatty acid (SCFA) analysis (1.8 ml). The samples were centrifuged (20,000 g, 10 min, 4° C.). An aliquot of 0.9 ml of the supernatant was collected into 0.1 ml of internal standard (19.8 mM ethylbutyrate in 20% v/v phosphoric acid) for SCFA analysis and stored at −20° C. SCFA samples were thawed and centrifuged (20,000 g, 10 min, 4° C.) and 800 μl of the supernatant was collected into a crimp cap glass vial. SCFA were analysed by a HP 6890 gas chromatograph (Attwood et al., 1998).
After the 14-day acclimatisation period, methane emissions were measured in open circuit respiration chambers as described in Chapter 1 of the technical manual on respiration chamber design (http://www.globalresearchalliance.org/wp-content/uploads/2012/03/GRA-MAN-Facility-BestPract-2012-ch13.pdf). Dry matter intake (DMI, kg/d) was recorded during methane measurements from the weight difference of feed offered and refused. The first day in the chambers (24-hour period; Period 1) served as a control for each animal. For the next three days the sheep received Compound 60, Compound 69, Compound 67 and Compound 64 at 412, 311, 414 and 344 mg per day, respectively (72-hour period; Period 2).
Methane gas outputs for the 96-hour period (first 24 hours for background measurements (Period 1), followed by three days of dosing (Period 2)) in open circuit respiration chambers were determined and are summarised in Table 2.

[3] = system: methane emissions from cattle; test: Example 3: in vivo cattle trial on methane emissions (respiration chambers, dosing in feed twice daily)
Description: as §1, with “various doses of” for “Compound 60, Compound 69, Compound 67 and”, “cattle” for “sheep”, “four 48-hour periods” for “a 96-hour period”, “Four cattle (Friesian dairy heifers, approximately 400 kg)” for “Three sheep”, “of two” for “Compound 60 and Compound 69 treatment group and six sheep were used for each Compound 67 and”, “groups.” for “group.”
as §2
After the 14-day acclimatisation period, methane emissions were measured in open circuit respiration chambers as described in Chapter 1 of the technical manual on respiration chamber design (http://www.globalresearchalliance.org/wp-content/uploads/2012/03/GRA-MAN-Facility-BestPract-012-ch13.pdf). Dry matter intake (DMI, kg/d) was recorded during methane measurements from the weight difference of feed offered and refused. Chamber measurements were made once a week for five weeks. The first period in the chambers (48-hour period; Period 1) served as a control for each animal. […]
Methane gas outputs for the four 48-hour treatment periods (Periods 2-5) in open circuit respiration chambers were determined and are summarised in Table 1. There were little or no feed refusals.

[4] = Day 1, dose mg/day: Compound 60 412, 69 311, 67 414, 64 344
[5] = Day 2, dose mg/day: Compound 60 412, 69 311, 67 414, 64 344
[6] = Day 3, dose mg/day: Compound 60 412, 69 311, 67 414, 64 344

**Q.** With O=C(O)CCC(=O)N1N=C(c2ccc(-c3ccc(OC(F)(F)F)c(F)c3)cc2)CC1c1ccc2nccnc2c1 (stereo not drawn) [Compound 67, 4-(3-(3′-Fluoro-4′-(trifluoromethoxy)-[1,1′-biphenyl]-4-yl)-5-(quinoxalin-6-yl)-4,5-dihydro-1H-pyrazol-1-yl)-4-oxobutanoic acid] as the compound, how does the inhibition at 2 µM [1] read?
**A.** 51.8 ± 8.4%

**Q.** What about the inhibition at 10 µM [1] of the same compound?
**A.** 92.4 ± 1.5%

**Q.** What about the “CH4 Inhibition [%] Average Days 1-3” value [2] of the same compound?
**A.** 36.5%

**Q.** What about the “CH4 Inhibition [%]” value [2, 4] of the same compound?
**A.** 24.2%

**Q.** And the “CH4 Inhibition [%]” value [2, 5]?
**A.** 36.7%

**Q.** And the “CH4 Inhibition [%]” value [2, 6]?
**A.** 48.6%

**Q.** How did the inhibition at 2 µM [1] turn out when CC(C)Oc1ccc(-c2ccc(C3=NN(C(=O)CCC(=O)O)C(c4ccc5nccnc5c4)C3)cc2)cc1 (stereo not drawn) [Compound 64, 4-(3-(4′-Isopropoxy-[1,1′-biphenyl]-4-yl)-5-(quinoxalin-6-yl)-4,5-dihydro-1H-pyrazol-1-yl)-4-oxobutanoic acid] was run?
**A.** 81%

**Q.** What about the inhibition at 10 µM [1] of the same compound?
**A.** 97.5%

**Q.** And the “CH4 Inhibition [%] Average Days 1-3” value [2]?
**A.** 85.8%

**Q.** And the “CH4 Inhibition [%]” value [2, 4]?
**A.** 81.9%

**Q.** And the “CH4 Inhibition [%]” value [2, 5]?
**A.** 85.6%

**Q.** What about the “CH4 Inhibition [%]” value [2, 6] of the same compound?
**A.** 89.8%

**Q.** What about the “CH4 Inhibition [%]” value ([3]; High dose group, Period 2, 150 mg/day) of the same compound?
**A.** 1.9 ± 5.2%

**Q.** What about the “CH4 Inhibition [%]” value ([3]; High dose group, Period 3, 450 mg/day) of the same compound?
**A.** 15.6 ± 11.7%

**Q.** What about the “CH4 Inhibition [%]” value ([3]; High dose group, Period 4, 450 mg/day) of the same compound?
**A.** 0.5 ± 5.8%

**Q.** And the “CH4 Inhibition [%]” value ([3]; High dose group, Period 5, 450 mg/day)?
**A.** 5.6 ± 3.0%

**Q.** What about the “CH4 Inhibition [%]” value ([3]; Low dose group, Period 2, 50 mg/day) of the same compound?
**A.** −4.7 ± 2.9%

**Q.** And the “CH4 Inhibition [%]” value ([3]; Low dose group, Period 3, 300 mg/day)?
**A.** 20.2 ± 9.8%

**Q.** What about the “CH4 Inhibition [%]” value ([3]; Low dose group, Period 4, 300 mg/day) of the same compound?
**A.** 2.5 ± 4.6%

**Q.** What about the “CH4 Inhibition [%]” value ([3]; Low dose group, Period 5, 300 mg/day) of the same compound?
**A.** −1.8 ± 4.0%

**Q.** For O=C(O)c1cccc(N2N=C(c3ccc(Cl)cc3)CC2c2ccc3nccnc3c2)c1 (stereo not drawn) [Compound 60, 3-(3-(4-Chlorophenyl)-5-(quinoxalin-6-yl)-4,5-dihydro-1H-pyrazol-1-yl)benzoic acid], which inhibition at 2 µM [1] is on record?
**A.** 16.1 ± 0.5%

**Q.** And the inhibition at 10 µM [1]?
**A.** 90.9 ± 1.2%

**Q.** What about the inhibition at 50 µM [1] of the same compound?
**A.** 97.7 ± 0.6%

**Q.** And the “CH4 Inhibition [%] Average Days 1-3” value [2]?
**A.** 26.2%

**Q.** What about the “CH4 Inhibition [%]” value [2, 4] of the same compound?
**A.** 26.3%

**Q.** And the “CH4 Inhibition [%]” value [2, 5]?
**A.** 20.9%

**Q.** And the “CH4 Inhibition [%]” value [2, 6]?
**A.** 31.2%

**Q.** What does the source list for CC(C)S(=O)(=O)NC(=O)CCC(=O)N1N=C(c2ccc(-c3ccccc3)cc2)CC1c1ccc2nccnc2c1 (stereo not drawn) [Compound 69, 4-(3-([1,1′-Biphenyl]-4-yl)-5-(quinoxalin-6-yl)-4,5-dihydro-1H-pyrazol-1-yl)-N-(isopropylsulfonyl)-4-oxobutanamide]?
**A.** inhibition at 2 µM [1]: 37.6 ± 5.6%; inhibition at 10 µM [1]: 92.8 ± 1.8%; CH4 Inhibition [%] Average Days 1-3 [2]: 23.5%; CH4 Inhibition [%] [2, 4]: 11.9%; CH4 Inhibition [%] [2, 5]: 26.3%; CH4 Inhibition [%] [2, 6]: 32.4%

**Q.** For O=C(O)CCC(=O)N1N=C(c2ccc(-c3ccccc3)cn2)CC1c1ccc2nccnc2c1 (stereo not drawn) [Compound 29, 4-Oxo-4-(3-(5-phenylpyridin-2-yl)-5-(quinoxalin-6-yl)-4,5-dihydro-1H-pyrazol-1-yl)butanoic acid], which inhibition at 50 µM [1] is on record?
**A.** 33.3 ± 0.6%

**Q.** Which inhibition at 2 µM [1] does the source give for CC(C)S(=O)(=O)NC(=O)CCC(=O)N1N=C(c2cccc(-c3ccccc3)c2)CC1c1ccc2nccnc2c1 (stereo not drawn) [Compound 119, 4-(3-([1,1′-Biphenyl]-3-yl)-5-(quinoxalin-6-yl)-4,5-dihydro-1H-pyrazol-1-yl)-N-(isopropylsulfonyl)-4-oxobutanamide] here?
**A.** 11.9 ± 2.7%

**Q.** And the inhibition at 10 µM [1]?
**A.** 81.8 ± 2.7%

**Q.** For O=C(O)CCC(=O)N1N=C(c2ccc(Cl)cc2)CC1c1ccc2c(c1)OCO2 (stereo not drawn) [Compound 37, 4-(5-(benzo[d][1,3]dioxol-5-yl)-3-(4-chlorophenyl)-4,5-dihydro-1H-pyrazol-1-yl)-4-oxobutanoic acid], which inhibition at 50 µM [1] is on record?
**A.** 15.6 ± 2%

**Q.** With O=C(O)CCC(=O)N1N=C(c2ccc3ccccc3c2)CC1c1ccc2nccnc2c1 (stereo not drawn) [Compound 31, 4-(3-(Naphthalen-2-yl)-5-(quinoxalin-6-yl)-4,5-dihydro-1H-pyrazol-1-yl)-4-oxobutanoic acid] as the compound, how does the inhibition at 50 µM [1] read?
**A.** 56.6 ± 6.9%

**Q.** How did the inhibition at 2 µM [1] turn out when O=C(O)CCC(=O)N1N=C(c2ccc(-c3ccc(CC(F)(F)F)cc3)cc2)CC1c1ccc2nccnc2c1 (stereo not drawn) [Compound 88, 4-Oxo-4-(5-(quinoxalin-6-yl)-3-(4′-(2,2,2-trifluoroethyl)-[1,1′-biphenyl]-4-yl)-4,5-dihydro-1H-pyrazol-1-yl)butanoic acid] was run?
**A.** < 5%

**Q.** And the inhibition at 10 µM [1]?
**A.** 83 ± 1.1%

**Q.** With CCC(C)Oc1ccc(-c2ccc(C3=NN(C(=O)CCC(=O)O)C(c4ccc5nccnc5c4)C3)cc2)cc1 (stereo not drawn) [Compound 83, 4-(3-(4′-(sec-Butoxy)-[1,1′-biphenyl]-4-yl)-5-(quinoxalin-6-yl)-4,5-dihydro-1H-pyrazol-1-yl)-4-oxobutanoic acid] as the compound, how does the inhibition at 2 µM [1] read?
**A.** < 5%

**Q.** And the inhibition at 10 µM [1]?
**A.** 69.2 ± 1.8%

**Q.** How did the inhibition at 2 µM [1] turn out when CS(=O)(=O)NC(=O)CCC(=O)N1N=C(c2ccc(Cl)cc2)CC1c1ccc2nccnc2c1 (stereo not drawn) [Compound 55, 4-(3-(4-Chlorophenyl)-5-(quinoxalin-6-yl)-4,5-dihydro-1-pyrazol-1-yl)-N-(methylsulfonyl)-4-oxobutanamide] was run?
**A.** < 5%

**Q.** What about the inhibition at 10 µM [1] of the same compound?
**A.** 70 ± 4.5%

**Q.** What about the inhibition at 50 µM [1] of the same compound?
**A.** 96.1 ± 0.5%

**Q.** Which inhibition at 10 µM [1] does the source give for O=C(O)CCC(=O)N1N=C2c3ccc(Cl)cc3CCC2C1c1ccc2nccnc2c1 (stereo not drawn) [Compound 73, 4-(7-Chloro-3-(quinoxalin-6-yl)-3,3a,4,5-tetrahydro-2H-benzo[g]indazol-2-yl)-4-oxobutanoic acid] here?
**A.** 18.8 ± 1.6%

**Q.** And the inhibition at 50 µM [1]?
**A.** 78 ± 1.9%

**Q.** With Cc1ccccc1S(=O)(=O)NC(=O)CCC(=O)N1N=C(c2ccc(Cl)cc2)CC1c1ccc2nccnc2c1 (stereo not drawn) [Compound 124, 4-(3-(4-Chlorophenyl)-5-(quinoxalin-6-yl)-4,5-dihydro-1H-pyrazol-1-yl)-4-oxo-N-(o-tolylsulfonyl) butanamide] as the compound, how does the inhibition at 10 µM [1] read?
**A.** 12.7 ± 0.8%

**Q.** COc1ccc(C2=NN(C(=O)CCC(=O)O)C(c3ccc4nccnc4c3)C2)cc1 (stereo not drawn) [Compound 6, 4-(3-(4-Methoxyphenyl)-5-(quinoxalin-6-yl)-4,5-dihydro-1H-pyrazol-1-yl)-4-oxobutanoic acid] was tested. Which inhibition at 50 µM [1] did it give?
**A.** 5.6 ± 2%

**Q.** Which results are given for CC(C)c1ccc(-c2ccc(C3=NN(C(=O)CCC(=O)O)C(c4ccc5nccnc5c4)C3)cc2)cc1 (stereo not drawn) [Compound 24, 4-(3-(4′-Isopropyl-[1,1′-biphenyl]-4-yl)-5-(quinoxalin-6-yl)-4,5-dihydro-1H-pyrazol-1-yl)-4-oxobutanoic acid]?
**A.** inhibition at 2 µM [1]: 21.8%; inhibition at 10 µM [1]: 94.1 ± 0.3%; inhibition at 50 µM [1]: 97.8 ± 0.05%

**Q.** O=C(O)CCC(=O)N1N=C(c2ccc(-c3ccc(OC(F)F)cc3)cc2)CC1c1ccc2nccnc2c1 (stereo not drawn) [Compound 65, 4-(3-(4′-(Difluoromethoxy)-[1,1′-biphenyl]-4-yl)-5-(quinoxalin-6-yl)-4,5-dihydro-1H-pyrazol-1-yl)-4-oxobutanoic acid] was tested. Which inhibition at 2 µM [1] did it give?
**A.** 26.2%

**Q.** And the inhibition at 10 µM [1]?
**A.** 90.2%
